Results on four molecules are retold here after US20260347319A1, “YAP/TAZ-TEAD ONCOPROTEINS INHIBITORS” (BridGene Biosciences, Inc., priority 2022, published 2026).

What all share (assay type): cell-based
Test [1] concerns TEAD1. Nature of the test: MCF-7 TEAD1-luciferase reporter assay (MCF7-TEAD-Luc). The conditions noted are these: MCF7 cells, overnight; for IC50: Homo sapiens; for TEAD1-Luc MCF7: Max Inhibition: % of DMSO-treated control. The method, boiled down:
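MCF7 cells with a TEAD luciferase reporter were seeded at 10,000 per well, grown 24 hours at 37° C, then treated overnight with serially diluted compound. Luciferase signal was normalized as % inhibition relative to DMSO controls, and IC50 came from a four-parameter fit.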
Background: Reporter assays use an easily measured gene product as a stand-in for the process of interest.

The subject of test [2] is NCI-H226 cells. As to the kind of experiment: Cell proliferation and viability assay (CPA) in NCI-H226 cells. The conditions noted are these: up to 6 d; for IC50: Homo sapiens, 144 h, read-out: CPA NCI-H226 IC50 Ave. As to the method:
Compound potency and efficacy in inhibiting cell proliferation and viability was assessed in multiple cell lines. For example, NCI-H226 cells (ATCC #CRL-5826) were seeded at 2000 cells in 200 μL medium per well of a 96-well plate (Corning #3610) and incubated at 37° C. for 24 hours, then treated with serial diluted compounds for up to 6 d. Viable cells were measured by CellTiter-Glo 2.0 Cell Viability Assay (Promega #G9243), and the luminescence signal was read using an EnSight Multimode plate reader (PerkinElmer, model 9MLDHH34000000, integration time 100 ms) with Kaleido 3.0. software. For data analysis, dose-dependent curves were plotted as “inhibition” (% of DMSO-treated control wells), and were fitted by four-parametric model in GraphPad Prism to obtain IC50 values. […]

The test system of the next test is H2052 cells. Nature of the test: Cell proliferation and viability assay (CPA) in H2052 cells. The following applies: for IC50: Homo sapiens, NCI-H2052, read-out: CPA H2052 IC50 Ave. As to the method:
(§1) Compound potency and efficacy in inhibiting cell proliferation and viability was assessed in multiple cell lines. For example, NCI-H226 cells (ATCC #CRL-5826) were seeded at 2000 cells in 200 μL medium per well of a 96-well plate (Corning #3610) and incubated at 37° C. for 24 hours, then treated with serial diluted compounds for up to 6 d. Viable cells were measured by CellTiter-Glo 2.0 Cell Viability Assay (Promega #G9243), and the luminescence signal was read using an EnSight Multimode plate reader (PerkinElmer, model 9MLDHH34000000, integration time 100 ms) with Kaleido 3.0. software. For data analysis, dose-dependent curves were plotted as “inhibition” (% of DMSO-treated control wells), and were fitted by four-parametric model in GraphPad Prism to obtain IC50 values.
(§2) Alternatively, cells were plated at 2000 cells in 200 μL medium per well of a 96-well plate (Corning #3585) overnight, treated with compound for 7 days, cell density images taken by Incycte S3 live cell analysis instrument (Sartorius) every 24 hours at the same time. Images were analyzed by Incucyte's AI-driven software to get C “% confluence” for every image. Dose-dependent curves were plotted as “% inhibition” (% o of DMSO-treated control wells) and were fitted by four-parametric model in GraphPad Prism to obtain IC50 values.

The test system of test [3] is TEAD1. Nature of the test: Palmitoylation assay, TEAD1 (HEK293T cells). The conditions noted are these: 3 um compound, 24 hours. As to the method:
(§3) Tagged TEAD constructs were cloned in pTriEx-6 (Novagen #71559) and transiently transfected into HEK293T cells for 24 hours. Then cells were treated with compounds for 24 hours, or treated with compounds plus 25 μM alkyne palmitic acid (for palmitoylation assay), and cell pellets were collected. Cells were lysed in lysis Buffer (100 mM Tris-HCl, 150 mM NaCl, 1% Triton, 5 mg/mL protease inhibitor cocktail), centrifuged for 10 min at 15000 g, TEAD proteins were pulled down and subjected to click-chemistry with TAMRA azide (Click Chemistry Tools #AZ109) to label compound-modified protein. Protein bands were separated by SDS-gel electrophoresis, target bands at expected molecular size were visualized using BioRad ChemiDoc Imaging system, band intensities were quantified by Image Studio.

The test system of test [4] is TEAD1. As to the kind of experiment: ELISA assay in H226 cells, TEAD1. The following applies: Homo sapiens, NCI-H226, overnight. As to the method: (§4) ELISA: 750k cells were plated per well of 6-well plate for 24 hours, treated with compounds overnight, cells were then lysed in lysis Buffer with 5 mg/mL protease inhibitor (Cell Signaling #9803), centrifuged at 12000 g for 5 min. Cell lysates were normalized to 2 mg/mL for subsequent assays. A 96-well assay plate (Corning #3690) was coated with TEAD antibodies (anti-TEAD1: Cell Signaling #12292, 1:100; anti-TEAD2: LSBio #LS-C101693-100, 1:50; anti-TEAD3: Abcam #ab75192, 1:100; anti-TEAD4: Abcam #ab58310, 1:400) overnight at 4° C. Plates were washed with TBST (Thermo Fisher #28360) for 3 times, blocked in 100 μL blocking buffer (2% BSA-TBST, Sigma #A7030) for 1 hour at room temperature. 50 μL cell lysates were incubated overnight at 4° C. with shaking. The next day, plates were washed with TBST three times, incubated with 1:125 anti-YPA-HRP (Cell Signaling #15028S) for 4 hours at 4° C., followed by 3× washing in TBST, then incubated in HRP substrate (Thermo Fisher #34021) for 10 min at room temperature, reaction was stopped by TMB stop solution (Thermo Fisher #N600). Signal was read at wavelength 450 nm.
(In general: In an ELISA, binding on a coated surface is turned into a signal by an enzyme label.)

Test [5] concerns the target T1, TEAD2 (Homo sapiens, UniProt Q15562). Nature of the test: ELISA assay in H226 cells, TEAD2. The arrangement: endogenous in cells; host or cells: H226. As to the method: as §4
In test [6] the target is T2, TEAD3 (Homo sapiens, UniProt Q99594). Nature of the test: ELISA assay in H226 cells, TEAD3. The arrangement: endogenous in cells; host or cells: H226. As to the method:
as §4
Target sequence in this assay (Q99594 2-435 limits assumed): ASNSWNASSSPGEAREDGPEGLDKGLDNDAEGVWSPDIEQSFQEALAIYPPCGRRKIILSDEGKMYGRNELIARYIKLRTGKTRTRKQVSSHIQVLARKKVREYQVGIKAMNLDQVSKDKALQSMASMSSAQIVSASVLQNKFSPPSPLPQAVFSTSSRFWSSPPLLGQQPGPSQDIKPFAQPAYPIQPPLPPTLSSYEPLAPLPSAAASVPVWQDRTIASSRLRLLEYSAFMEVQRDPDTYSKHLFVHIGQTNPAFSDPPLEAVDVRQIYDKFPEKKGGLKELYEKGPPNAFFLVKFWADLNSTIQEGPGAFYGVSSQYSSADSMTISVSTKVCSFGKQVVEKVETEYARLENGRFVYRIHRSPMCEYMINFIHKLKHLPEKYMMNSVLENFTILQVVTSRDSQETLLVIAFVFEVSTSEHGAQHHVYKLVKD

Test [7] deals with T3, TEAD4 (Homo sapiens, UniProt Q15561). Nature of the test: ELISA assay in H226 cells, TEAD4. The arrangement: endogenous in cells; host or cells: H226. The conditions noted are these: overnight. As to the method:
as §4

For test [8], the target named is T1, TEAD2. Nature of the test: Palmitoylation assay, TEAD2 (HEK293T cells). Also noted: unspecified tag; expressed in transfected cells; host or cells: HEK293T. The conditions noted are these: 3 um compound, 24 hours. As to the method:
as §3

Test [9] deals with T2, TEAD3. As to the kind of experiment: Palmitoylation assay, TEAD3 (HEK293T cells). The conditions noted are these: 3 um compound, 24 hours. The arrangement: unspecified tag; expressed in transfected cells; host or cells: HEK293T. As to the method: as §3
Target sequence in this assay (Q99594 whole entry): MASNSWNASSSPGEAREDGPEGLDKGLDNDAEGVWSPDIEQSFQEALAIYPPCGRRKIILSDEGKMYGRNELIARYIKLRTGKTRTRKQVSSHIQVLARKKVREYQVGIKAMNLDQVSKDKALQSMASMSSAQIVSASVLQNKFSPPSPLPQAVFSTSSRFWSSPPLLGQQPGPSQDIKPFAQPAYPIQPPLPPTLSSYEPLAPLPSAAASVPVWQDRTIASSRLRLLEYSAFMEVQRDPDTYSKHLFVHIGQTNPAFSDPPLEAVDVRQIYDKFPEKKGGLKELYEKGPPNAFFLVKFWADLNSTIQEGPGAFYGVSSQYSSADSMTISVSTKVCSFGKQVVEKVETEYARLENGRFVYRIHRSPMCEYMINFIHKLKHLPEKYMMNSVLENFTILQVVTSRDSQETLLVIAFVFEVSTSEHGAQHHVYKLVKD
Test [10] concerns the target T3, TEAD4. As to the kind of experiment: Palmitoylation assay, TEAD4 (HEK293T cells). Also noted: unspecified tag; expressed in transfected cells; host or cells: HEK293T. The conditions noted are these: 3 um compound, 24 hours. As to the method:
as §3

The test system of test [11] is NCI-H226 cells. As to the kind of experiment: Cell proliferation and viability assay (CPA) in NCI-H226 cells. The conditions noted are these: up to 6 d. As to the method:
as §1, §2

Read-outs that look alike come from different tables or passages of the source. Where only a bound is given, the exact number is not on record here.

T3 sequence (Q15561 whole entry): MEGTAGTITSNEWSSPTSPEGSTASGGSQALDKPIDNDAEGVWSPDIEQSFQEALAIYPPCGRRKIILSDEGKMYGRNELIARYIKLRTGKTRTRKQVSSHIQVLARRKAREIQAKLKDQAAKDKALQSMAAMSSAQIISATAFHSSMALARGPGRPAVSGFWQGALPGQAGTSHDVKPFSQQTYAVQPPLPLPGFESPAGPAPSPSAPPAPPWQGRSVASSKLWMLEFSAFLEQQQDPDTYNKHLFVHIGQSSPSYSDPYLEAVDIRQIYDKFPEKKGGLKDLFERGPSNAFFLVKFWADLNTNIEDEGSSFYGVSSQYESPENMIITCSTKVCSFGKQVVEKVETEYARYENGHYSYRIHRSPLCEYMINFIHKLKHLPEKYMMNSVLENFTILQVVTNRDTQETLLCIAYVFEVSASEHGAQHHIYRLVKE
T1 sequence (Q15562 whole entry): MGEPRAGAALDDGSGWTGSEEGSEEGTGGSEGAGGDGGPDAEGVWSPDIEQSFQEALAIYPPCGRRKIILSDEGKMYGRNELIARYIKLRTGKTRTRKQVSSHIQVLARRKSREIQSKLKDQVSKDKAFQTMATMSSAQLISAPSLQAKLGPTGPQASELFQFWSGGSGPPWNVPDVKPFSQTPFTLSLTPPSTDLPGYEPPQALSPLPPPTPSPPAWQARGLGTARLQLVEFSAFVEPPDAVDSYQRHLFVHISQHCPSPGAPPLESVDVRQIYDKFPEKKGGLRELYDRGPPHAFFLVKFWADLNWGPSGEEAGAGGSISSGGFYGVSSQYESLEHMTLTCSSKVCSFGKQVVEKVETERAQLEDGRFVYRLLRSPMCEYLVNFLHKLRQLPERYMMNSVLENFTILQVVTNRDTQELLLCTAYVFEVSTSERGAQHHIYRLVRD

With `C=CC(=O)N1CC[C@H](/C=C/c2ccc(C(F)(F)F)cc2)C1` (single isomer, unassigned) [Example 10], the IC50 with TEAD1 [1] is not above 10 nM; with NCI-H226 cells [2], not above 100 nM; in the test with H2052 cells, not above 100 nM; with TEAD1 [4], 13 nM; against TEAD2 [5] (overnight), 89 nM; against TEAD3 [6] (overnight) it was 7.2 nM. On TEAD4 [7], this molecule displayed an IC50 of 1010 nM. Further, the “TEAD1-Luc MCF7: Max Inhibition” value with TEAD1 [1] is reported as “A (A ≥ 75%)”. Moreover, the “CPA NCI-H226 Max Inh Ave” value in the test with NCI-H226 cells [2] is listed as “B (75% > B ≥ 50%)”. Also, the “CPA H2052 Max Inh Ave” value in the test with H2052 cells is listed as “B (75% > B ≥ 50%)”. In addition, the “TEAD1 Inh (palmitoylation)” value with TEAD1 [3] came out at 94%. In addition, the “TEAD2 Inh (palmitoylation)” value on TEAD2 [8] came to 57%. For the same molecule, the “TEAD3 Inh (palmitoylation)” value at TEAD3 [9] is 98%. Also, the “TEAD4 Inh (palmitoylation)” value at TEAD4 [10] turned out to be 52%.

As to `C=CC(=O)N1C[C@@H](/C=C/c2ccc(C(F)(F)F)cc2)[C@H](Nc2ncccn2)C1` (single isomer, unassigned) [Example 83], the IC50 in the test with TEAD1 [1] was 10 to 100 nM; in the test with TEAD1 [4] it was 66.4 nM; against TEAD2 [5] (overnight) it was 17.7 nM; at TEAD3 [6] (overnight), 107 nM; at TEAD4 [7] it was 219 nM. Further, the “TEAD1-Luc MCF7: Max Inhibition” value in the test with TEAD1 [1] is “A (A ≥ 75%)”. For the same molecule, the “TEAD1 Inh (palmitoylation)” value with TEAD1 [3] is 93%. Moreover, the “TEAD2 Inh (palmitoylation)” value on TEAD2 [8] turned out to be 54%. Further, on TEAD3 [9], the “TEAD3 Inh (palmitoylation)” value came out at 90%. Besides, at TEAD4 [10], the “TEAD4 Inh (palmitoylation)” value is reported as 52%.

Take `C=CC(=O)N1CC(/C=C/c2ccc(C(F)(F)F)cc2)C1` [Example 15]: the IC50 in the test on TEAD1 [1] is not above 10 nM; with H2052 cells, not above 100 nM; in the test on TEAD1 [4], 14 nM; with NCI-H226 cells [11] (Homo sapiens, 144 h, read-out: CPA NCI-H226 IC50 Ave), 100 to 500 nM; on TEAD2 [5], 179 nM; at TEAD3 [6] it was 4 nM. In the test on TEAD1 [1], the “TEAD1-Luc MCF7: Max Inhibition” value is “A (A ≥ 75%)”. Also, the “CPA H2052 Max Inh Ave” value with H2052 cells is listed as “B (75% > B ≥ 50%)”. For the same molecule, the “TEAD1 Inh (palmitoylation)” value with TEAD1 [3] is 97%. The “CPA NCI-H226 Max Inh Ave” value with NCI-H226 cells [11] is given as “B (75% > B ≥ 50%)”. Moreover, the “TEAD2 Inh (palmitoylation)” value on TEAD2 [8] turned out to be 80%. Moreover, at TEAD3 [9], the “TEAD3 Inh (palmitoylation)” value turned out to be 98%. Further, the “TEAD4 Inh (palmitoylation)” value at TEAD4 [10] worked out at 80%.

As for `C=CC(=O)N1CCC(C#Cc2ccc(C(F)(F)F)cc2)C1` (stereo not drawn) [Example 38, 1-(3-((4-(trifluoromethyl)phenyl)ethynyl)pyrrolidin-1-yl)prop-2-en-1-one], the IC50 with TEAD1 [1] is not above 10 nM; in the test with NCI-H226 cells [2], not above 100 nM; in the test with H2052 cells it was not above 100 nM; with TEAD1 [4] it was 8.7 nM; at TEAD2 [5] (overnight), 3.4 nM; on TEAD3 [6] (overnight) it was 5.6 nM. On TEAD4 [7], this molecule displayed an IC50 of 15.5 nM. Besides, the “TEAD1-Luc MCF7: Max Inhibition” value with TEAD1 [1] is “A (A ≥ 75%)”. Moreover, in the test on NCI-H226 cells [2], the “CPA NCI-H226 Max Inh Ave” value is given as “B (75% > B ≥ 50%)”. Besides, the “CPA H2052 Max Inh Ave” value in the test on H2052 cells is listed as “B (75% > B ≥ 50%)”. The “TEAD1 Inh (palmitoylation)” value in the test with TEAD1 [3] was 93%. For the same molecule, the “TEAD2 Inh (palmitoylation)” value on TEAD2 [8] was determined as 69%. The “TEAD3 Inh (palmitoylation)” value on TEAD3 [9] came out at 95%. For the same molecule, the “TEAD4 Inh (palmitoylation)” value on TEAD4 [10] turned out to be 71%.

For orientation: IC50 means the concentration needed to halve the response being measured.
